# Paper PMC3948684, “Approaches to Improve the Oral Bioavailability and Effects of Novel Anticancer Drugs Berberine and Betulinic Acid” (PLoS ONE, 2014)
# Experiments:
# [1] = system: A549 orthotopic lung tumors; assay: A549 orthotopic lung cancer model; format: in vivo, athymic Nu/nu mice; details: 100 mg/kg orally daily for 3 weeks
# Description: A549 cells were grown in F12K Medium containing 10% FBS and standard antibiotic mix at 5% CO2 and 37°C. For orthotopic lung tumor model, mice were anesthetized with Isoflurane and a 5 mm skin incision was made to the left chest, 5 mm below the scapula. Hamilton syringes (1 ml) with 28-gauge hypodermic needles were used to inject the cell inoculums through the sixth intercostal space into the left lung. The needle was quickly advanced to a depth of 3 mm and quickly removed after the injection of the A549 cells (2 million/mouse) suspended in 100 µL PBS (pH 7.4) into the lung parenchyma. For metastatic lung tumor models H1650 cells (2 million in 100 µL PBS) were intravenously administered to mice via tail vein. […] Only cell suspensions of >95% viability as determined by tryphan blue exclusion were used. Wounds from the incisions were closed with surgical skin clips. […] Drug treatment was started 2 weeks after the tumor cell implantation. BBR free drug or SD formulation was given orally at the dose of 100 mg/kg daily for 3 weeks. […] Body weights were monitored throughout the study. Animal survival rates were recorded during the study. The lung weights and tumor volumes were used for assessment of therapeutic activity of the treatments. After sacrificing the animals lung weights and tumor nodules were recorded in metastatic tumor models.
# [2] = In vitro Caco-2 permeability study; details: human, Caco-2, pH 5.8
# Description: Caco-2 cells (passage #29) were cultured at 37°C with culture medium replaced every 2 days in an atmosphere of 5% CO2 and 95% relative humidity. Cells were harvested upon reaching approximately 80-90% confluence with 0.25% trypsin–EDTA. Cells were grown on 1.12 cm^2 0.4 μm pore polycarbonate membrane inserts in 12 mm × 12 transwell permeable support plates (Corning, NY, USA). Caco-2 cells were seeded onto membranes at 50,000 cells/well. Individual wells received 1.5 mL of culture medium at the bottom and 0.5 mL of medium was added to the top of inserts which was changed on alternate days. Confluent monolayers were used for permeability studies at ~21 days post seeding. Transepithelial electrical resistance (TEER) of Caco-2 monolayers was measured prior to all experiments using the EVOM volt-ohm-meter (Millicell-ERS; Millipore, USA) to ensure monolayer integrity. The TEER (Ω·cm^2) values of the cell monolayers were determined by the resistance (Ω) × effective membrane area (cm^2). TEER values were measured across each cell monolayer prior to beginning the experimentation and at the last sample collection time point. Transport studies were initiated by removing culture medium from the apical (A) and basolateral (B) sides of the cell monolayer. […] The effective permeability (Peff) (cm/s) was determined using Eq. 1: […]
smiles,measurement,setting,value
"COc1ccc2cc3[n+](cc2c1OC)CCc1cc2c(cc1-3)OCO2.[Cl-] [BBR free drug, 5,6-dihydro-9,10-dimethoxy-benzo[g]-1,3-benzodioxolo[5,6-a]quinolizinium, chloride]",decrease in tumor volumes compared to untreated control,[1],1.31 fold
same,lung tumor weights,[1],385.77 ± 63.42 mg
same,reduced tumor weights compared to control tumors,[1],1.40 fold
same,"Papp A→B at 120 min, 100 µM",[2],~0.29 ×10⁻⁶ cm/s
